Measured values from article PMC4363092 (Journal of medicinal chemistry, 2014).
Values joined by “and” are separate entries in the source; they are usually repeats but may differ in a detail not shown here. Equal entries are not always repeated. “Also recorded” adds a separate entry of the source. Where two headings read alike, the source gives them in different places.

Experiments:
NPP1 = details: cited from earlier work; for Ki: read-out: Ki, NPP1
human NPP1 = molecular target: T1, human NPP1 (Homo sapiens, UniProt P22413); assay: Inhibition of NPP1, pNP-TMP as substrate; assay type: biochemical; details: Dixon and Cornish–Bowden methods
T1 sequence (P22413 1-925): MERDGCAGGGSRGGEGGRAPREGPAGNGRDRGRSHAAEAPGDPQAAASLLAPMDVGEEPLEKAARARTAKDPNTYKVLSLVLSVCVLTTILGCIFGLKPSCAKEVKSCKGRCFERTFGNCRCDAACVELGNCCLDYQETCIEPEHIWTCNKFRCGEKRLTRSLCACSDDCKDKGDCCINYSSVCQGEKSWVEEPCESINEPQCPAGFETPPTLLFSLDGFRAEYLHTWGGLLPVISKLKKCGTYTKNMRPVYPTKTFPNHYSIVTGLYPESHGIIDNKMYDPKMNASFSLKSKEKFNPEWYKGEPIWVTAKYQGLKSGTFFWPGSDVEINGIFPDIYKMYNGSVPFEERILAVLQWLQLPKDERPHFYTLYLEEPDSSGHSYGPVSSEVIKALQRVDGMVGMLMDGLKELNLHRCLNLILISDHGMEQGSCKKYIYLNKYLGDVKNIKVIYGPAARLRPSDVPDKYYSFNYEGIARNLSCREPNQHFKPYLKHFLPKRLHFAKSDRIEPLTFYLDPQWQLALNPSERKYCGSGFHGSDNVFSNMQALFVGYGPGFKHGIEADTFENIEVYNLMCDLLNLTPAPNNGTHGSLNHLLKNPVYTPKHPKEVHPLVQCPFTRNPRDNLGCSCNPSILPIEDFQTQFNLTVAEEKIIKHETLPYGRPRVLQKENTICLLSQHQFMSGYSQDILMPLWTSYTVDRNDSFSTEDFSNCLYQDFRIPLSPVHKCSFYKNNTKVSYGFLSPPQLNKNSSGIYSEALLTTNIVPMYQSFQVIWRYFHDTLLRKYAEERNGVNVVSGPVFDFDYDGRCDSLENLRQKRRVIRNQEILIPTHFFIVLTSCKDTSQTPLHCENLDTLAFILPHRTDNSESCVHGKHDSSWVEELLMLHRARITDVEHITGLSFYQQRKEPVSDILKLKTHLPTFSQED

human NTPDase8 = molecular target: T2, human NTPDase8 (Homo sapiens, UniProt Q5MY95); details: analogue 100 μM as substrate; activity with 100 μM ATP set as 100%
T2 sequence (Q5MY95 1-495): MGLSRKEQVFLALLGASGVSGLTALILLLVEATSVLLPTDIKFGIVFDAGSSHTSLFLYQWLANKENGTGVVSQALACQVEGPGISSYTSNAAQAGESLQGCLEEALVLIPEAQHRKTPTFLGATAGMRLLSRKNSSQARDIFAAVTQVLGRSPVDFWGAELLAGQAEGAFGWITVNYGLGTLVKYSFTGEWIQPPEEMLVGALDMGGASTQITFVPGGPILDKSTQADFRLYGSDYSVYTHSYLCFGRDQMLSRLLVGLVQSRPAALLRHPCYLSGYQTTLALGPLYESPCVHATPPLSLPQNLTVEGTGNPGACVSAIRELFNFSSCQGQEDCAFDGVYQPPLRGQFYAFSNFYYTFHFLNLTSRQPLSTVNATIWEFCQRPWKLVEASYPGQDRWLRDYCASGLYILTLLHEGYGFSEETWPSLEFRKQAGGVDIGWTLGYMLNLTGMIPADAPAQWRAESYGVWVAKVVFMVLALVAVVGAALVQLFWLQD

human NTPDase2 = molecular target: T3, human NTPDase2 (Homo sapiens, UniProt Q9Y5L3); details: analogue 100 μM as substrate; activity with 100 μM ATP set as 100%
T3 sequence (Q9Y5L3 1-495): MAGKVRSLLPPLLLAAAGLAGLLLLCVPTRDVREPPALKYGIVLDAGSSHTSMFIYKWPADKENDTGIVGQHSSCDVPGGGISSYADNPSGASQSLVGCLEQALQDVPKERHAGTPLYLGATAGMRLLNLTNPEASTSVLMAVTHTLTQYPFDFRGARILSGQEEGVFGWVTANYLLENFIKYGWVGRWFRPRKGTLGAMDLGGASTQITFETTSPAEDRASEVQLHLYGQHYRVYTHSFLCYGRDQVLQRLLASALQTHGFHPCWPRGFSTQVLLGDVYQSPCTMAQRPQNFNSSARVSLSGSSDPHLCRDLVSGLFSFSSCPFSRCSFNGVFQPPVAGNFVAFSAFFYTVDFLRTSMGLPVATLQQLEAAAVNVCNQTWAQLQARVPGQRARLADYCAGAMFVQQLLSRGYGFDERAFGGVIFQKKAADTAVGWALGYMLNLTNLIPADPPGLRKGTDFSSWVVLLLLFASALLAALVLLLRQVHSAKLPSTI

P2Y11 receptor [1] = molecular target: T4, P2Y11 receptor (Homo sapiens, UniProt Q96G91); assay: [Ca2+]i elevation in 1321N1 astrocytoma cells expressing GFP-P2Y11 receptor; assay type: cell-based; details: for potency relative to ATP at the P2Y11 receptor: more potent than ATP
T4 sequence (Q96G91 1-374): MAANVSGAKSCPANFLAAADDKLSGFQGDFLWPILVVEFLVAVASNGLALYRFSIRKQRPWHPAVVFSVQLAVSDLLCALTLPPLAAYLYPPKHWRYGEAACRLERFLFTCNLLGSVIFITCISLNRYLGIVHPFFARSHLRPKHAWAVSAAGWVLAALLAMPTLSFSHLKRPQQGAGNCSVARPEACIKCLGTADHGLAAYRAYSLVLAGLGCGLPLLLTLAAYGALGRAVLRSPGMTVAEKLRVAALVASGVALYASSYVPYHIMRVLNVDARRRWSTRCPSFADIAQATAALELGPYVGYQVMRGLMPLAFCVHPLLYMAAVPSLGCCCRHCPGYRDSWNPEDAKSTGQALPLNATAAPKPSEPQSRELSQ

human NTPDase1 = molecular target: T5, human NTPDase1 (Homo sapiens, UniProt P49961); details: analogue 100 μM as substrate; activity with 100 μM ATP set as 100%
T5 sequence (P49961 1-510): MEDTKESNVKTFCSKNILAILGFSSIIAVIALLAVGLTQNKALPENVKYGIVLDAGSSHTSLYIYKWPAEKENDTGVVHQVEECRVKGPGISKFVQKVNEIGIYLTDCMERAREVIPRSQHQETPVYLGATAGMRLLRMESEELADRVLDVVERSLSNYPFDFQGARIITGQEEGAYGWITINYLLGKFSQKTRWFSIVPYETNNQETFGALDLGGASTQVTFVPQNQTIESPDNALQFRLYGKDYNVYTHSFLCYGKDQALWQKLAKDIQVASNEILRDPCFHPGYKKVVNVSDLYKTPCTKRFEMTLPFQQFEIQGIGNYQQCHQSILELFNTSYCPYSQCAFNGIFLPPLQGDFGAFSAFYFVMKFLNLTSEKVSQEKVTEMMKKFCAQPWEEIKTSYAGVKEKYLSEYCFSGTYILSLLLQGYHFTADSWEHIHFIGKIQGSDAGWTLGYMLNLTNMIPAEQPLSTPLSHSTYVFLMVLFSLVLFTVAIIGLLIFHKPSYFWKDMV

human NTPDase3 = molecular target: T6, human NTPDase3 (Homo sapiens, UniProt O75355); details: analogue 100 μM as substrate; activity with 100 μM ATP set as 100%
T6 sequence (O75355 1-529): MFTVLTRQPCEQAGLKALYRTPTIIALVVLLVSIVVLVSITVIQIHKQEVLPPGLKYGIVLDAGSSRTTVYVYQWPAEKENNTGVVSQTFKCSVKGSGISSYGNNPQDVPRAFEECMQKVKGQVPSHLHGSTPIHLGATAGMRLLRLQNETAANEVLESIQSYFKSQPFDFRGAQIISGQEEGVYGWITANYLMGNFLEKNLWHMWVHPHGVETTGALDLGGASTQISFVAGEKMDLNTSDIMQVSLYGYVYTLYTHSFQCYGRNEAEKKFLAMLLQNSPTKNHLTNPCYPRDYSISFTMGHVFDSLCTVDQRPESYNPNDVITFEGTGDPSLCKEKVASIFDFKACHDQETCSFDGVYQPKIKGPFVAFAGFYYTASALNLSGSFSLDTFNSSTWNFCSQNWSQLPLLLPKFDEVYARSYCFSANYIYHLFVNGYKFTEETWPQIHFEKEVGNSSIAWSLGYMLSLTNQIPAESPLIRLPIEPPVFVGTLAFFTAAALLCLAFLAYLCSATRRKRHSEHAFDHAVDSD

human NTPDase1,2,3,8 = assay: Inhibition of NTPDase activity, text statements pooled over NTPDase1,2,3,8; assay type: biochemical; details: analogue 100 μM, pooled over four NTPDases
P2Y11 receptor [2] = details: cited from earlier work; for potency relative to ATP at the P2Y11 receptor: higher potency than ATP

SMILES	relative activity (%) ± SD of ATP hydrolysis, NTPDase8 (human NTPDase8) [%]	relative activity (%) ± SD of ATP hydrolysis, NTPDase2 (human NTPDase2) [%]	relative activity (%) ± SD of ATP hydrolysis, NTPDase1 (human NTPDase1) [%]	relative activity (%) ± SD of ATP hydrolysis, NTPDase3 (human NTPDase3) [%]	inhibition of ATP hydrolysis by NTPDase1,2,3,8 (human NTPDase1,2,3,8)	also measured
BP(=O)(OC[C@H]1O[C@@H](n2cnc3c(N)ncnc32)[C@H](O)[C@@H]1O)OP(=O)(O)CP(=O)(O)O (single isomer, unassigned; isomer a) [adenosine 5′-α-borano-β,γ-methylenetriphosphate (isomer A), adenosine 5′-α-borano-β,γ-methylenetriphosphate]						Ki (NPP1; ref 22 (b65 prints ref 44)): 0.5 µM
Nc1ncnc2c1ncn2[C@@H]1O[C@H](CO[P@@](O)(=S)OP(=O)(O)CP(=O)(O)O)[C@@H](O)[C@H]1O [1b]	5.3 ± 0.2	5.5 ± 0.3	5.4 ± 0.2	4.8 ± 0.2	did not interfere	type of inhibition (human NPP1): mixed-type inhibition, predominantly competitive; potency relative to ATP at the P2Y11 receptor (P2Y11 receptor [1]): 7 fold and ~ 7 fold
Nc1ncnc2c1ncn2[C@@H]1O[C@H](CO[P@@](O)(=S)OP(=O)(O)C(Cl)(Cl)P(=O)(O)O)[C@@H](O)[C@H]1O [2b]	5.3 ± 0.2	5.5 ± 0.2	5.4 ± 0.2	5.4 ± 0.2	did not interfere	type of inhibition (human NPP1): mixed-type inhibition, predominantly competitive; EC50 (P2Y11 receptor [1]): 3 ± 1.46 µM; potency relative to ATP at the P2Y11 receptor (P2Y11 receptor [1]): 2 fold and ~ 2 fold
Nc1ncnc2c1ncn2[C@@H]1O[C@H](CO[P@](=O)(O)O[P@](=O)(O)O[P@@](=O)(O)S)[C@@H](O)[C@H]1O [ATP-γ-S]						pEC50, P2Y11 receptor (P2Y11 receptor [2]): 5.52
Nc1ncnc2c1nc(S)n2[C@@H]1O[C@H](COP(=O)(O)OP(=O)(O)OP(=O)(O)O)[C@@H](O)[C@H]1O [compound 4]	73 ± 1	73 ± 2	43 ± 2	51 ± 3		
Nc1ncnc2c1ncn2[C@@H]1O[C@H](CO[P@](O)(=S)OP(=O)(O)CP(=O)(O)O)[C@@H](O)[C@H]1O [1a]	4.4 ± 0.2	4.7 ± 1.7	4.4 ± 0.2	4.2 ± 0.2	did not interfere	EC50 ± SEM (μM), [Ca^2+]i elevation, P2Y11 (P2Y11 receptor [1]; 1321N1 cells, nr = no response up to 10 μM): not agonists; also recorded: inactive; also recorded: not active, nr ^c
CCCSc1nc(N)c2ncn([C@@H]3O[C@H](COP(O)(=S)OP(=O)(O)C(Cl)(Cl)P(=O)(O)O)[C@@H](O)[C@H]3O)c2n1 (single isomer, unassigned; isomer a) [2-(propylthio)adenosine 5′-α-thio-β,γ-(dichloromethylene)-triphosphate, isomer A, 2-(propylthio)adenosine 5′-α-thio-β,γ-(dichloromethylene)-triphosphate]						potency relative to ATP at the P2Y11 receptor (P2Y11 receptor [2]): ~ 3 fold
CCCSc1nc(N)c2ncn([C@@H]3O[C@H](COP(O)(=S)OP(=O)(O)C(Cl)(Cl)P(=O)(O)O)[C@@H](O)[C@H]3O)c2n1 (single isomer, unassigned; isomer b) [2-(propylthio)adenosine 5′-α-thio-β,γ-(dichloromethylene)-triphosphate, isomer B, 2-(propylthio)adenosine 5′-α-thio-β,γ-(dichloromethylene)-triphosphate]						potency relative to ATP at the P2Y11 receptor (P2Y11 receptor [2]): ~ 4 fold
Nc1ncnc2c1ncn2[C@H]1C[C@H](O)[C@@H](COP(=O)(O)CP(=O)(O)OP(=O)(O)OP(=O)(O)CP(=O)(O)OC[C@H]2O[C@@H](n3cnc4c(N)ncnc43)C[C@@H]2O)O1 [bis(2′-deoxyadenosine) α,β:δ,ε-dimethylenepentaphosphonate]						IC50 (NPP1; read-out: IC50, NPP1): 13 µM; Ki (NPP1): 9 µM
